Source: patent US8598339B2, “Withanolide isolated from Physalis longifolia and analogs and methods of use thereof” (University of Kansas, priority 2011, dated 2013)

Assays:
[1] = test system: HSF1, Hsp70 and Hsp40 mRNA; assay: HSF1, Hsp70 and Hsp40 mRNA levels; format: cell-based; details: Control 1.0
Protocol: Levels of HSF1, Hsp70 and Hsp40 mRNA were also determined in response to treatment with SX002 or X003 for 8 or 16 hours.

[2] = test system: TT medullary thyroid cancer cells; assay: MTS cell viability assay, TT; format: cell-based; details: Table 1, 72-hour treatment
Protocol: Human carcinoid cells, NCI-H727 (ATCC, Manassas, Va.), were cultured under standard conditions. Squamous cell carcinoma of head and neck cells, MDA1986 (Myers, et al. (2002) Clin. Cancer Res. 8:293) and JMAR (Swan, et al. (2003) Oral Oncol. 39:648-55); and melanoma cells lines B16F10 (ATCC, Manassas, Va.) and SKMEL28 (CLS, Eppelheim, Germany) were cultured in DMEM medium supplemented with 10% heat-inactivated fetal bovine serum (Sigma-Aldrich, St. Louis, Mo.), 1×MEM-essential amino acid, 1×MEM vitamin, and penicillin/streptomycin (Sigma-Aldrich, St. Louis, Mo.) in a humid environment of 5% CO2 at 37° C. Activity of withanolides against DRO81-1 and TT medullary thyroid cancer cells was also determined.
Cells were cultured in 96 well plates at a concentration of 1-2×10^4 cells/mL. Cell viability was assessed with the nonradioactive cell proliferation MTS assay using Cell Titer 96AQUEOUS One Solution Reagent (PROMEGA, Madison, Wis.), according to the manufacturer's instruction. After a 72-hour treatment, 20 μL of Cell Titer 96AQUEOUS One Solution Reagent were added to each well and incubated for 3 hours at 37° C. 5% CO2, and formazan absorbance was measured at 490 nm.

[3] = In vitro metabolism, rat liver microsomes; format: in vitro ADME, rat (Sprague-Dawley); details: 1.0E-06 M
Protocol: The in vitro metabolism of […], as compared to known reference compounds, was analyzed using liver microsomes from human, dog (Beagle), rat (Sprague-Dawley) and mouse (CD-1). […] Results are from two independent tests.

BT20 = assay: MTS assay, BT20; format: cell-based
Protocol: Cell proliferation was analyzed using MTS assay.

MDA-MB-231 cells = assay: Cell cycle analysis, MDA-MB-231; format: cell-based; details: 4 and 8 μM; 24-hour treatment
[4] = test system: caspase-3, PARP, BRCA-1, HSF1, mutant p53, Notch1, Jagged1 in MDA-MB-231 cells; assay: Western blot, MDA-MB-231; format: cell-based; details: 24-hour or 48-hour treatment
Ames test strain TA98 = assay: Ames test, TA98

SMILES | HSF1 mRNA level ([1]; 8 hours) | HSP40 mRNA level ([1]; 8 hours) | HSP70 mRNA level ([1]; 8 hours) | HSF1 mRNA level ([1]; 16 hours) | HSP40 mRNA level ([1]; 16 hours) | HSP70 mRNA level ([1]; 16 hours) | IC50 [2] [nM] | Mean % Parent Compound Remaining [3] [%] | Log ECF (BT20) | cell cycle effect (MDA-MB-231 cells) | levels of BRCA-1, HSF1, mutant p53, Notch1 and Jagged1 ([4]; 1, 2, 4, or 8 μM) | caspase-3 activation (concentration) ([4]; tested 1, 2, 4, or 8 μM) [µM] | Positive Significance (− to +++) (Ames test strain TA98; 1.0E−04 M, TA98 +S9) | Positive Significance (− to +++) (Ames test strain TA98; 1.0E−04 M, TA98 −S9) | Positive Significance (− to +++) (Ames test strain TA98; 1.0E−05 M, TA98 +S9) | Positive Significance (− to +++) (Ames test strain TA98; 1.0E−05 M, TA98 −S9) | Positive Significance (− to +++) (Ames test strain TA98; 5.0E−05 M, TA98 +S9) | Positive Significance (− to +++) (Ames test strain TA98; 5.0E−05 M, TA98 −S9) | Positive Significance (− to +++) (Ames test strain TA98; 5.0E−06 M, TA98 +S9) | Positive Significance (− to +++) (Ames test strain TA98; 5.0E−06 M, TA98 −S9)
CC(=O)OCC1=C(C)C[C@H]([C@@H](C)C2CC[C@H]3[C@@H]4C[C@H]5O[C@]56[C@@H](OC(C)=O)C=CC(=O)[C@]6(COC(C)=O)[C@H]4CC[C@]23C)OC1=O (some centres unmarked) [Compound X003, 4,19,27-triacetyl X001] | 1.2 | 8.3 | 30.8 | 1.1 | 14.2 | 183.1 |  |  |  |  |  |  |  |  |  |  |  |  |  | 
CC1=C(CO)C(=O)O[C@@H]([C@@H](C)C2CC[C@H]3[C@@H]4C[C@H]5O[C@]56[C@@H](O)C=CC(=O)[C@]6(CO)[C@H]4CC[C@]23C)C1 (some centres unmarked) [Compound X001] |  |  |  |  |  |  | 1910 | 31 | 0.91 | G2/M arrest | decreased | 4 to 8 | − | − | − | − | − | − | − | −
